Source: patent US20060188903A1, “Implantation serine proteinases” (priority 2001, published 2006)

Tests used:
[1] = tested on: ISP2 mRNA; assay: Uterine ISP2 gene expression by in situ hybridization in hormone- or RU486-treated mice; assay type: in vivo, mouse; conditions: for induction of ISP2 gene expression: after ovariectomy without progesterone maintenance, up to 14 days; for maintenance of ISP2 gene expression: delayed implantation after ovariectomy
Description: All surgical procedures were carried out after the mice were anaesthetized with an i.p. injection of Avertin (2% (w/v) tribromoethanol; Aldrich Chemical Co. Milwaukee, Wis.). Ovariectomy was performed by dorsal-lateral incision (Hogan et al., 1994). Ovariectomized mice were allowed at least 1 wk for recovery before the induction of deciduomas. All steroid hormones including RU486 were dissolved in sesame oil and injected s.c. At each stage of the experiment, control mice were used which received only oil (0.1 ml/mouse) injections. The standard regimen for artificial induction of deciduomas (Finn, 1966) was modified to more closely mimic pseudo-pregnancy (Milligan, 1995). Here, the first progesterone treatment was started […] after exposure to oestrogen. This modified regimen consisted of 100 ng oestrogen daily starting on Day 0, and 1 mg progesterone plus 10 ng oestrogen from day three onward. Deciduomas were induced surgically on Day 5 (between 1400-1600 h) by injecting sesame oil (10 μl) into the lumen of one uterine horn from its oviductal tip. Injected and uninjected horns were collected 24, 48 or 72 hours later for histological sectioning and in situ hybridization analysis.
Delayed implantation was induced and maintained by ovariectomising mice on day 3 of pregnancy, followed by administration of progesterone (2 mg/mouse) on days 4 to 6. Subsequently, half these mice were treated with estrogen (25 ng/mouse) on the morning of the seventh day, while the other half received the normal progesterone injection. Mice were sacrificed 24 hours later for analysis by in situ hybridization.
The effect of steroids on uterine development in the absence of blastocysts was examined by ovariectomizing mice and treating them with hormone injections after a two week recovery period. They received injections of either progesterone (1 mg/mouse), estrogen (100 ng/mouse), or a combination of both (10 ng estrogen and 1 mg progesterone/mouse) for three days. Mice were then sacrificed on the morning of the fourth day. To further determine the importance of progesterone on ISP2 gene expression superovulated pregnant and pseudo-pregnant mice (Hogan et al., 1994) were treated with RU486 (400 μg/mouse) on the morning of the third day after a vaginal plug was detected. The mice were then sacrificed 24 hours later and their uterine horns were collected for in situ hybridization analysis.
Whole embryo RNA in situ hybridization using digoxigenin-labelled RNA probes was performed essentially as previously described (Rancourt and Rancourt, 1997). The ISP1 probe comprised the 478 bp RT-PCR subclone in pBSKS^+. The ISP2 probe also comprised a 478 by RT-PCR subclone in pBSKS^+. The antisense probes were synthesized using T3 polymerase after plasmid linearization with EcoRI. […]

[2] = tested on: Mouse Blastocysts; assay: In vitro blastocyst hatching after oligodeoxynucleotide administration; assay type: cell-based; conditions: for Percent Hatched over Time: 100 blastocysts; for effect on blastocyst hatching (in words): scored at 20, 30, 40 and 60 hours
Description: (§1) Morulae were collected from oviducts of superovulated, 2.5 day pregnant dams in M2 medium (Hogan et al., 1994). For hatching, morulae were cultured in microwells for approximately 24 hrs at 37° C., 5% CO2 in KSOMaa medium (Erbach et al., 1994). In embryo outgrowth, hatched blastocysts were cultured for an additional 48 hrs at 37° C., 5% CO2 in Dulbecco's Modified Eagle's Medium plus 5% (v/v) fetal bovine serum on microwells coated with extracellular matrix derived from 10% (v/v) Triton X-100-treated mouse embryo fibroblasts (Behrendtsen et al., 1995).
In antisense oligodeoxynucleotide studies, harvested blastocysts were placed in 0.001% (v/v) L-a-lysophosphatidylcholine for 60 seconds (Jones et al., 1997) and were transferred to microdrops equilibrated with 2.5 μM, 5 μM oligodeoxynucleotide or an equal volume of H2O (Behrendtsen et al., 1995). Two antisense oligodeoxynucleotides were designed against regions surrounding ISP1's initiation codon: AS1 (5′-[…]-3′; SEQ ID NO;13) situated upstream, AS2 (5′-[…]-3′; SEQ ID NO:14) lying downstream. A control oligodeoxynucleotide, SS1 (5′-[…]-3′; SEQ ID NO:15), represented the scrambled sense sequence surrounding the initiation codon. The oligodeoxynucleotides were designed using Oligo™ software and were synthesized and purified by Dr. Richard Pon, UC DNA Services (University of Calgary). Blastocysts were scored at 20, 30, 40, and 60 hours for progress in hatching. […] Following eight hours of treatment, some blastocysts were assayed for the presence of ISP1 transcripts using RT-PCR. Following 24 hours of treatment, some blastocysts were assayed for strypsin activity using histochemical staining. In outgrowth studies, blastocysts were allowed to hatch and then transferred to microdrops equilibrated with oligodeoxynucleotide or water. Progress in outgrowth was monitored over a period of 5 days.
A possible role for ISP1 in hatching was examined by determining whether ISP1 mRNA could be reduced in blastocysts by treatment with antisense oligodeoxynucleotides (Behrendtsen et al., 1995; Jones et al., 1997) and result in an alteration of the hatching process. Two antisense oligodeoxynucleotides were designed surrounding ISP1's initiation codon covering the region immediately upstream (AS1) and downstream (AS2). A control oligodeoxynucleotide (SS1) represented the scrambled sense sequence surrounding the initiation codon. Blastocysts were scored at 20, 30, 40, and 60 hours for progress in hatching.

[3] = tested on: ISP1 transcripts; assay: RT-PCR of ISP1 transcripts in oligodeoxynucleotide-treated blastocysts; assay type: cell-based, mouse; conditions: after eight hours of culture
Description: The presence of ISP1 transcripts in embryos and placentas was monitored using RT-PCR. Total RNA (1 μg) was reverse transcribed and amplified using ISP1 specific primers (ISP1 for 5′-[…]-3′; SEQ ID NO:9 and ISP1rev 5′-GTCAAAGATGGCCACAGC-3+: SEQ ID NO: 10) and forty rounds of thermal cycling (1 min at 94° C., 2 min at 60° C., and 2 min at 72° C.). The RT-PCR amplification of GAPDH (as a control for mRNA loading) is described elsewhere (Arcellana-Panlilio and Schultz, 1993). The predicted 175 and 380 bp amplification products were separated on a 2% (w/v) agarose gel.
(§2) In antisense oligodeoxynucleotide studies, harvested blastocysts were placed in 0.001% (v/v) L-a-lysophosphatidylcholine for 60 seconds (Jones et al., 1997) and were transferred to microdrops equilibrated with 2.5 μM, 5 μM oligodeoxynucleotide or an equal volume of H2O (Behrendtsen et al., 1995). Two antisense oligodeoxynucleotides were designed against regions surrounding ISP1's initiation codon: AS1 (5′-[…]-3′; SEQ ID NO;13) situated upstream, AS2 (5′-[…]-3′; SEQ ID NO:14) lying downstream. A control oligodeoxynucleotide, SS1 (5′-[…]-3′; SEQ ID NO:15), represented the scrambled sense sequence surrounding the initiation codon. […] Blastocysts were scored at 20, 30, 40, and 60 hours for progress in hatching. […] Progress in outgrowth was monitored over a period of 5 days.

[4] = tested on: strypsin; assay: Histochemical staining of strypsin activity in blastocysts; assay type: cell-based, mouse; conditions: 24 hours of treatment
Description: Whole embryo RNA in situ hybridization using digoxigenin-labelled RNA probes was performed essentially as previously described (Rancourt and Rancourt, 1997). The ISP1 probe comprised the 478 bp RT-PCR subclone in pBSKS^+. The ISP2 probe also comprised a 478 by RT-PCR subclone in pBSKS^+. The antisense probes were synthesized using T3 polymerase after plasmid linearization with EcoRI. The sense probes were synthesized using T7 polymerase after plasmid linearization with BamHI. All experiments were performed with the sense RNA probe in parallel to detect non-specific hybridization. Histochemical staining of strypsin activity was performed essentially as outlined previously (Perona and Wassarman, 1986). Embryos were collected as early blastocysts in M2 medium, and were lightly fixed in 1.25% (w/v) glutaraldehyde in 0.25M sucrose, 50 mM sodium phosphate (pH7.5) for five min at 4° C. Following fixation, the blastocysts were placed in 50 mM sodium phosphate (pH7.5) containing the substrate N-α-benzoyl-DL-arginine β-napthylamide (0.56 mM; Sigma) and Fast Garnet GBC salt (1.86 mM; Sigma), were incubated for 5 min at room temperature and washed in 50 mM sodium phosphate (pH7.5).
as §2

[5] = tested on: hatched blastocysts; assay: Blastocyst outgrowth on extracellular matrix after hatching; assay type: cell-based, mouse; conditions: prehatched blastocysts in culture with oligodeoxynucleotide
Description: as §1, §2

estrogen
induction of ISP2 gene expression [1]: did not have a stimulatory effect
maintenance of ISP2 gene expression [1]: not observed

AS1: antisense oligodeoxynucleotide upstream of ISP1's initiation codon, 5′-TCTAACTACCGTCTAACAACG-3′; SEQ ID NO:13 (DNA, backbone and methylation of C not given here)
Percent Hatched over Time ([2]; 2.5 µM, 20 hours): 0%
Percent Hatched over Time ([2]; 2.5 µM, 30 hours): 0%
Percent Hatched over Time ([2]; 2.5 µM, 40 hours): 16%
Percent Hatched over Time ([2]; 2.5 µM, 60 hours): 37%
Percent Hatched over Time ([2]; 5.0 µM, 20 hours): 10%
Percent Hatched over Time ([2]; 5.0 µM, 30 hours): 10%
Percent Hatched over Time ([2]; 5.0 µM, 40 hours): 20%
Percent Hatched over Time ([2]; 5.0 µM, 60 hours): 20%
effect on blastocyst hatching (in words) [2]: interfered specifically with blastocyst hatching
reduction of accumulation of ISP1 transcripts [3]: at least 100 fold
strypsin activity at the abembryonic pole (histochemical) [4]: reduced strypsin activity
strypsin activity at the abembryonic pole (histochemical) ([4]; listed as antisense oligodeoxynucleotide): strypsin activity was absent
time to adhere to extracellular matrix [5]: 5 days

CC(=O)[C@H]1CC[C@H]2[C@@H]3CCC4=CC(=O)CC[C@]4(C)[C@H]3CC[C@]12C [progesterone]
induction of ISP2 gene expression [1]: could be induced
maintenance of ISP2 gene expression [1]: normal ISP2 expression was observed

AS2: antisense oligodeoxynucleotide downstream of ISP1's initiation codon, 5′-GAACTCTTCTAACTACCGTCT-3′; SEQ ID NO:14 (DNA, backbone and methylation of C not given here)
Percent Hatched over Time ([2]; 2.5 µM, 20 hours): 0%
Percent Hatched over Time ([2]; 2.5 µM, 30 hours): 20%
Percent Hatched over Time ([2]; 2.5 µM, 40 hours): 35%
Percent Hatched over Time ([2]; 2.5 µM, 60 hours): 40%
Percent Hatched over Time ([2]; 5.0 µM, 20 hours): 0%
Percent Hatched over Time ([2]; 5.0 µM, 30 hours): 5%
Percent Hatched over Time ([2]; 5.0 µM, 40 hours): 35%
Percent Hatched over Time ([2]; 5.0 µM, 60 hours): 45%
effect on blastocyst hatching (in words) [2]: interfered specifically with blastocyst hatching

SS1: control oligodeoxynucleotide, scrambled sense sequence surrounding the ISP1 initiation codon, 5′-ACGGTAGTTAGAAGAGTTCT-3′; SEQ ID NO:15 (DNA, backbone and methylation of C not given here) [reference compound]
Percent Hatched over Time ([2]; 2.5 µM, 20 hours): 10%
Percent Hatched over Time ([2]; 2.5 µM, 30 hours): 16%
Percent Hatched over Time ([2]; 2.5 µM, 40 hours): 58%
Percent Hatched over Time ([2]; 2.5 µM, 60 hours): 90%
Percent Hatched over Time ([2]; 5.0 µM, 20 hours): 10%
Percent Hatched over Time ([2]; 5.0 µM, 30 hours): 39%
Percent Hatched over Time ([2]; 5.0 µM, 40 hours): 61%
Percent Hatched over Time ([2]; 5.0 µM, 60 hours): 77%
ISP1 transcript levels (in words) ([3]; versus untreated controls): significant reduction was not observed
strypsin activity at the abembryonic pole (histochemical) [4]: localized strypsin activity was observed
time to adhere to extracellular matrix [5]: 2 days
